In US11161846B2, “Substituted pyrazolo[4,3-b]pyridines and their use as GluN2B receptor modulators” (JANSSEN PHARMACEUTICA NV, priority 2019, dated 2021):

Biological target: T1, human GluN1/GluN2B NMDA receptors (Homo sapiens, UniProt Q05586+Q13224)
T1 construct: expressed in transfected cells
Assay: Calcium flux (FLIPR) assay on cloned human NR1/GluN2B ion channels expressed in mammalian cells, standard assay
Type: cell-based
Conditions: glutamate ~EC40 and 10 μM glycine, stable cell line with Tet-On induced expression
In short: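 Tet-On-induced stable mammalian line loaded with Calcium 5 dye (0.5 mM MgCl2 loading buffer), then assayed in pH 7.4 buffer with 137 mM NaCl, 4 mM KCl, 2 mM CaCl2. Compound was added for 5 min, then glutamate (~EC40) plus 10 µM glycine for 5 min. FLIPR fluorescence was normalized to control wells.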

T1 sequence (Q13224 27-1484, other chains not shown): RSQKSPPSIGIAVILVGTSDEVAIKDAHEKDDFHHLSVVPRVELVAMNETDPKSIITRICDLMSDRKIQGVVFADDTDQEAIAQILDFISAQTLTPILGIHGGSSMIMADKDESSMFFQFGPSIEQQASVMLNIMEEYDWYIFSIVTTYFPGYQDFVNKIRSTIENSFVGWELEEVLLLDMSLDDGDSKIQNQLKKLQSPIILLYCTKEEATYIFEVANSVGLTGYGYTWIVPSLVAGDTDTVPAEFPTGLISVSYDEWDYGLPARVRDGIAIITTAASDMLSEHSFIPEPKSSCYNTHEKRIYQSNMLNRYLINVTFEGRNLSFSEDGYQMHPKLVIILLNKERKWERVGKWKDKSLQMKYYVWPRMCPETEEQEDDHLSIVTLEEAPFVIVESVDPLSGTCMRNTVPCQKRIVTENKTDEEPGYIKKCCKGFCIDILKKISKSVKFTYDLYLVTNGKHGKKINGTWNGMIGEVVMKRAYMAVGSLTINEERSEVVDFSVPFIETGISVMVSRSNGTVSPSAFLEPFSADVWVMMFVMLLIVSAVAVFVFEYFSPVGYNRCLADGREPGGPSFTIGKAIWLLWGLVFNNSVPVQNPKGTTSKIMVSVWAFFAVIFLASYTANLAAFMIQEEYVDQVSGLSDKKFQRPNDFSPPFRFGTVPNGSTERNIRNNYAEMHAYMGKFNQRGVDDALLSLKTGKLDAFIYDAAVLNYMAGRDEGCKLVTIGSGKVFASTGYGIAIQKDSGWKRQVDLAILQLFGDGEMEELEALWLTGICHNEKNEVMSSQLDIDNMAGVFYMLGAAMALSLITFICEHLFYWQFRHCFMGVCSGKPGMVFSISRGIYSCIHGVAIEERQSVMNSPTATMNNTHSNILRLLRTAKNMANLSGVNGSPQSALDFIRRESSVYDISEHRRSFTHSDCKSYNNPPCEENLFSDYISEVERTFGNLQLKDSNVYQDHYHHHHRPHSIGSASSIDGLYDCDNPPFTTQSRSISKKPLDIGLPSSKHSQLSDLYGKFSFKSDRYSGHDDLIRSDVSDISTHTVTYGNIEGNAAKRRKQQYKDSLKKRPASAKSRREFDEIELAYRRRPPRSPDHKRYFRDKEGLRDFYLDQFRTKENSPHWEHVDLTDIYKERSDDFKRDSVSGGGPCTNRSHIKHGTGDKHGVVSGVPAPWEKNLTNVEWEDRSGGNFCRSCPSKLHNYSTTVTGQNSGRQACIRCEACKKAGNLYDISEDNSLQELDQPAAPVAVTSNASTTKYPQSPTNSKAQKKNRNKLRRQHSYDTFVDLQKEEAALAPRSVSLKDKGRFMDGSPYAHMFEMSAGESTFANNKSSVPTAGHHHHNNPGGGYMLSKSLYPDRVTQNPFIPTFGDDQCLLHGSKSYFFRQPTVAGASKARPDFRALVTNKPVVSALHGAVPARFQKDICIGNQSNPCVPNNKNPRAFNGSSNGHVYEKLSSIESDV

Row | IC50 | Structure (SMILES)
1 | 8 nM | O=C(Cn1ncc2ncc(-c3ccc(Cl)s3)cc21)C1CC1 [Example 55, 2-[6-(5-Chloro-2-thienyl)pyrazolo[4,3-b]pyridin-1-yl]-1-cyclopropyl-ethanone]
2 | 15 nM | Cc1ccc(-c2cnc3cnn(CC(=O)C4CC4)c3c2)s1 [Example 56, 1-Cyclopropyl-2-[6-(5-methyl-2-thienyl)pyrazolo[4,3-b]pyridin-1-yl]ethanone]
3 | 26 nM | O=C(Cn1ncc2ncc(-c3cccc(F)c3)cc21)C1CC1 [Example 57, 1-Cyclopropyl-2-[6-(3-fluorophenyl)pyrazolo[4,3-b]pyridin-1-yl]ethanone]
4 | 148 nM | O=C(Cn1ncc2ncc(-c3ccccc3F)cc21)C1CC1 [Example 58, 1-Cyclopropyl-2-[6-(2-fluorophenyl)pyrazolo[4,3-b]pyridin-1-yl]ethanone]
5 | 13 nM | O=C(Cn1ncc2ncc(-c3ccc(F)cc3)cc21)C1CC1 [Example 59, 1-Cyclopropyl-2-[6-(4-fluorophenyl)pyrazolo[4,3-b]pyridin-1-yl]ethanone]
6 | 8 nM | Cc1cccc(-c2cnc3cnn(CC(=O)C4CC4)c3c2)c1 [Example 60, 1-Cyclopropyl-2-[6-(m-tolyl)pyrazolo[4,3-b]pyridin-1-yl]ethanone]
7 | 46 nM | O=C(Cn1ncc2ncc(-c3cccc(C(F)(F)F)c3)cc21)C1CC1 [Example 62, 1-Cyclopropyl-2-[6-[3-(trifluoromethyl)phenyl]pyrazolo[4,3-b]pyridin-1-yl]ethanone]
8 | 31 nM | O=C(Cn1ncc2ncc(-c3cccc(OC(F)(F)F)c3)cc21)C1CC1 [Example 63, 1-Cyclopropyl-2-[6-[3-(trifluoromethoxy)phenyl]pyrazolo[4,3-b]pyridin-1-yl]ethanone]
9 | 37 nM | O=C(Cn1ncc2ncc(-c3cccc(F)c3F)cc21)C1CC1 [Example 64, 1-Cyclopropyl-2-[6-(2,3-difluorophenyl)pyrazolo[4,3-b]pyridin-1-yl]ethanone]
10 | 13 nM | O=C(Cn1ncc2ncc(-c3ccc(F)c(F)c3)cc21)C1CC1 [Example 65, 1-Cyclopropyl-2-[6-(3,4-difluorophenyl)pyrazolo[4,3-b]pyridin-1-yl]ethanone]
11 | 19 nM | O=C(Cn1ncc2ncc(-c3cc(F)cc(F)c3)cc21)C1CC1 [Example 66, 1-Cyclopropyl-2-[6-(3,5-difluorophenyl)pyrazolo[4,3-b]pyridin-1-yl]ethanone]
12 | 16 nM | O=C(Cn1ncc2ncc(-c3cccc(Cl)c3F)cc21)C1CC1 [Example 67, 2-[6-(3-Chloro-2-fluoro-phenyl)pyrazolo[4,3-b]pyridin-1-yl]-1-cyclopropyl-ethanone]
13 | 7 nM | O=C(Cn1ncc2ncc(-c3ccc(F)c(Cl)c3)cc21)C1CC1 [Example 68, 2-[6-[3-Chloro-4-fluoro-phenyl)pyrazolo[4,3-b]pyridin-1-yl]-1-cyclopropyl-ethanone]
14 | 19 nM | Cc1cc(-c2cnc3cnn(CC(=O)C4CC4)c3c2)ccc1F [Example 69, 1-Cyclopropyl-2-[6-(4-fluoro-3-methyl-phenyl)pyrazolo[4,3-b]pyridin-1-yl]ethanone]
15 | 63 nM | Cc1cc(-c2cnc3cnn(CC(=O)C4CCC4)c3c2)ccc1F [Example 70, 1-Cyclobutyl-2-[6-(4-fluoro-3-methyl-phenyl)pyrazolo[4,3-b]pyridin-1-yl]ethanone]
16 | 7 nM | Cc1cccc(-c2cnc3cnn(CC(=O)C4CC4)c3c2)c1F [Example 71, 1-Cyclopropyl-2-[6-(2-fluoro-3-methyl-phenyl)pyrazolo[4,3-b]pyridin-1-yl]ethanone]
17 | 199 nM | Cc1cc(F)ccc1-c1cnc2cnn(CC(=O)C3CC3)c2c1 [Example 72, 1-Cyclopropyl-2-[6-(4-fluoro-2-methyl-phenyl)pyrazolo[4,3-b]pyridin-1-yl]ethanone]
18 | 43 nM | O=C(Cn1ncc2ncc(-c3cccc(C(F)(F)F)c3F)cc21)C1CC1 [Example 73, 1-Cyclopropyl-2-[6-[2-fluoro-3-(trifluoromethyl)phenyl]pyrazolo[4,3-b]pyridin-1-yl]ethanone]
19 | 36 nM | O=C(Cn1ncc2ncc(-c3ccc(F)c(C(F)(F)F)c3)cc21)C1CC1 [Example 74, 1-Cyclopropyl-2-[6-[4-fluoro-3-(trifluoromethyl)phenyl]pyrazolo[4,3-b]pyridin-1-yl]ethanone]
20 | 76 nM | O=C(Cn1ncc2ncc(-c3ccc(Cl)c(C(F)(F)F)c3)cc21)C1CC1 [Example 75, 2-[6-[4-Chloro-3-(trifluoromethyl)phenyl]pyrazolo[4,3-b]pyridin-1-yl]-1-cyclopropyl-ethanone]
21 | 18 nM | O=C(Cn1ncc2ncc(-c3ccc(F)c(C(F)F)c3)cc21)C1CC1 [Example 76, 1-Cyclopropyl-2-[6-[3-(difluoromethyl)-4-fluoro-phenyl]pyrazolo[4,3-b]pyridin-1-yl]ethanone]
22 | 14 nM | O=C(Cn1ncc2ncc(-c3ccc(F)c(OC(F)F)c3)cc21)C1CC1 [Example 77, 1-Cyclopropyl-2-[6-[3-(difluoromethoxy)-4-fluoro-phenyl]pyrazolo[4,3-b]pyridin-1-yl]ethanone]
23 | 30 nM | O=C(Cn1ncc2ncc(-c3ccc(F)c(F)c3F)cc21)C1CC1 [Example 79, 1-Cyclopropyl-2-[6-(2,3,4-trifluorophenyl)pyrazolo[4,3-b]pyridin-1-yl]ethanone]
24 | 272 nM | Cc1cc(-c2cnc3cnn(C[C@@H](O)C4CC4)c3c2)ccc1F [Example 103, (S)-1-Cyclopropyl-2-[6-(4-fluoro-3-methyl-phenyl)pyrazolo[4,3-b]pyridin-1-yl]ethanol]

The next lines start with the compound.

Row | Structure (SMILES) | IC50
25 | CC(C)C(=O)Cn1ncc2ncc(-c3ccc(F)c(F)c3)cc21 [Example 49, 1-[6-(3,4-Difluorophenyl)pyrazolo[4,3-b]pyridin-1-yl]-3-methyl-butan-2-one] | 25 nM
26 | CC(C)C(=O)Cn1ncc2ncc(-c3cccc(C(F)(F)F)c3F)cc21 [Example 50, 1-[6-[2-Fluoro-3-(trifluoromethyl)phenyl]pyrazolo[4,3-b]pyridin-1-yl]-3-methyl-butan-2-one] | 76 nM
27 | CC(C)C(=O)Cn1ncc2ncc(-c3ccc(F)c(C(F)(F)F)c3)cc21 [Example 51, 1-[6-[4-Fluoro-3-(trifluoromethyl)phenyl]pyrazolo[4,3-b]pyridin-1-yl]-3-methyl-butan-2-one] | 296 nM
28 | Cc1cc(F)ccc1-c1cnc2cnn(CC(=O)C(C)C)c2c1 [Example 52, 1-[6-(4-Fluoro-2-methyl-phenyl)pyrazolo[4,3-b]pyridin-1-yl]-3-methyl-butan-2-one] | 90 nM
29 | CC(C)C(=O)Cn1ncc2ncc(-c3cc(F)c(F)c(F)c3)cc21 [Example 53, 3-Methyl-1-[6-(3,4,5-trifluorophenyl)pyrazolo[4,3-b]pyridin-1-yl]butan-2-one] | 41 nM
30 | CC(C)C(=O)Cn1ncc2ncc(-c3ccc(F)c(F)c3F)cc21 [Example 54, 3-Methyl-1-[6-(2,3,4-trifluorophenyl)pyrazolo[4,3-b]pyridin-1-yl]butan-2-one] | 205 nM
31 | COCCn1ncc2ncc(-c3ccc(F)c(C)c3)cc21 [Example 89, 6-(4-Fluoro-3-methyl-phenyl)-1-(2-methoxyethyl)pyrazolo[4,3-b]pyridine] | 754 nM
32 | CCC(F)(F)Cn1ncc2ncc(-c3ccc(F)c(C(F)F)c3)cc21 [Example 98, 1-(2,2-Difluorobutyl)-6-[3-(difluoromethyl)-4-fluoro-phenyl]pyrazolo[4,3-b]pyridine] | 89 nM
33 | CCC(F)(F)Cn1ncc2ncc(-c3ccc(F)c(OC(F)F)c3)cc21 [Example 99, 1-(2,2-Difluorobutyl)-6-[3-(difluoromethoxy)-4-fluoro-phenyl]pyrazolo[4,3-b]pyridine] | 213 nM
34 | Cc1cc(-c2cnc3cnn(C[C@H](O)C4CC4)c3c2)ccc1F [Example 102, (R)-1-Cyclopropyl-2-[6-(4-fluoro-3-methyl-phenyl)pyrazolo[4,3-b]pyridin-1-yl]ethanol] | 109 nM
35 | Fc1ccc(-c2cnc3cnn(CC(F)(F)C4CC4)c3c2)cc1C(F)F [Example 108, 1-(2-Cyclopropyl-2,2-difluoro-ethyl)-6-[3-(difluoromethyl)-4-fluoro-phenyl]pyrazolo[4,3-b]pyridine] | 45 nM
36 | Fc1ccc(-c2cnc3cnn(CC(F)(F)C4CC4)c3c2)cc1OC(F)F [Example 109, 1-(2-Cyclopropyl-2,2-difluoro-ethyl)-6-[3-(difluoromethoxy)-4-fluoro-phenyl]pyrazolo[4,3-b]pyridine] | 69 nM
37 | CC1(Cn2ncc3ncc(-c4ccc(F)c(C(F)F)c4)cc32)COC1 [Example 110, 6-[3-(Difluoromethyl)-4-fluoro-phenyl]-1-[(3-methyloxetan-3-yl)methyl]pyrazolo[4,3-b]pyridine] | 2060 nM
38 | CN1CC[C@@H](Cn2ncc3ncc(-c4ccc(F)c(C(F)F)c4)cc32)C1=O [Example 117, (S)-3-[[6-[3-(Difluoromethyl)-4-fluoro-phenyl]pyrazolo[4,3-b]pyridin-1-yl]methyl]-1-methyl-pyrrolidin-2-one] | 1210 nM
39 | CN1CC[C@H](Cn2ncc3ncc(-c4ccc(F)c(C(F)F)c4)cc32)C1=O [Example 118, (R)-3-[[6-[3-(Difluoromethyl)-4-fluoro-phenyl]pyrazolo[4,3-b]pyridin-1-yl]methyl]-1-methyl-pyrrolidin-2-one] | 125 nM
40 | CN1C[C@@H](Cn2ncc3ncc(-c4ccc(F)c(C(F)F)c4)cc32)CC1=O [Example 121, (S)-4-[[6-[3-(Difluoromethyl)-4-fluoro-phenyl]pyrazolo[4,3-b]pyridin-1-yl]methyl]-1-methyl-pyrrolidin-2-one] | 685 nM
41 | CN1C[C@H](Cn2ncc3ncc(-c4ccc(F)c(C(F)F)c4)cc32)CC1=O [Example 122, (R)-4-[[6-[3-(Difluoromethyl)-4-fluoro-phenyl]pyrazolo[4,3-b]pyridin-1-yl]methyl]-1-methyl-pyrrolidin-2-one] | 120 nM
42 | CN1C[C@H](Cn2ncc3ncc(-c4ccc(F)c(C(F)F)c4)cc32)OC1=O [Example 129] | 30 nM
